Source: ChEMBL document CHEMBL1158011, “Five new flavone 5-O-glycosides from Lethedon tannaensis: lethedosides and lethediosides” (J Nat Prod, 1999)
Converted amounts (≈) assume the structure as drawn.

Tested on: KB
Test: Cytotoxicity against human KB cells after 72 hrs by neutral red assay
Format: functional, cell-based

Compound	IC50 [mg/L]
COc1cc(O[C@@H]2O[C@H](CO)[C@@H](O)[C@H](O)[C@H]2O)c2c(=O)cc(-c3cc(O)c(OC)c(OC)c3)oc2c1 [LETHEDOSIDE C]	43 (≈ 84.9 µM)
COc1cc(O[C@@H]2O[C@H](CO)[C@@H](O)[C@H](O)[C@H]2O)c2c(=O)cc(-c3ccc(OC)c(OC)c3)oc2c1 [LETHEDOSIDE A]	> 100
COc1cc(O)c2c(=O)cc(-c3ccc(O)c(OC)c3)oc2c1 [VELUTIN]	1.5 (≈ 4.77 µM)
COc1ccc(-c2cc(=O)c3c(O[C@@H]4O[C@H](CO[C@@H]5OC[C@@H](O)[C@H](O)[C@H]5O)[C@@H](O)[C@H](O)[C@H]4O)cc(OC)cc3o2)cc1	> 100
COc1cc(O[C@@H]2O[C@H](CO[C@@H]3OC[C@@H](O)[C@H](O)[C@H]3O)[C@@H](O)[C@H](O)[C@H]2O)c2c(=O)cc(-c3ccc(OC)c(OC)c3)oc2c1 [LETHEDIOSIDE A]	> 100
COc1cc(O[C@@H]2O[C@H](CO[C@@H]3OC[C@@H](O)[C@H](O)[C@H]3O)[C@@H](O)[C@H](O)[C@H]2O)c2c(=O)cc(-c3cc(OC)c(OC)c(OC)c3)oc2c1 [LETHEDIOSIDE B]	32 (≈ 49 µM)
COc1cc(O[C@@H]2O[C@H](CO)[C@@H](O)[C@H](O)[C@H]2O)c2c(=O)cc(-c3cc(OC)c(OC)c(OC)c3)oc2c1 [LETHEDOSIDE B]	37 (≈ 71.1 µM)
